Source: patent publication US10918713B2, “Epitopes from allergen proteins and methods and uses for immune response modulation” (LA JOLLA INSTITUTE FOR ALLERGY AND IMMUNOLOGY, priority 2012, dated 2021)
Several values for one entry are separate records, joined by “and”; a condition that tells them apart may be missing. Equal entries are not always repeated.

Tests used:
[1] = test system: PBMC from allergic donors; assay: IL-5 ELISPOT with extract-stimulated short-term lines; assay type: cell-based, human; conditions: positive donor/peptide response
Protocol: (§1) Spots were counted by computer-assisted image analysis (Zeiss, KS-ELISPOT reader, Munich, Germany).
(§2) Each assay was performed in triplicate. The level of statistical significance was determined with a Student's t-test using the mean of triplicate values of the response against relevant pools or individual peptides versus the response against the DMSO control.

[2] = test system: PBMC from allergic donors; assay: Dual ELISPOT, total IL-5 and IFN-γ response (SFC); assay type: cell-based, human; conditions: sum of IFNg and IL-5
Protocol: as §1, §2

Substance | Response (SFC/10^6) IL-5 ([1]; one donor per table line) | Response (SFC/10^6) Total ([2]; one donor per table line) | Response (SFC/10^6) IL-5 ([1]; each table line is one donor) | Response (SFC/10^6) Total ([2]; each table line is one donor)
3324.0348 (RAVESYLLAHSDAYN) | 293 SFC/10^6 | 293 SFC/10^6 |  | 
3324.0349 (TSVIPAARLFKAFFL) | 427 SFC/10^6 | 427 SFC/10^6 |  | 
3324.0350 (DHTNFKYSYSVIEGG) | 413 SFC/10^6 | 413 SFC/10^6 |  | 
3324.0351 (YETETTSVIPAARLF) | 403 SFC/10^6 | 403 SFC/10^6 |  | 
3324.0354 (GIKYMVIQGEAGAVI) | 350 SFC/10^6 | 350 SFC/10^6 |  | 
3324.0355 (DGSVWAQSSSFPQFK) | 1953 SFC/10^6 | 1953 SFC/10^6 |  | 
3324.0356 (GLHLGGIKYMVIQGE) | 440 SFC/10^6 | 440 SFC/10^6 |  | 
3324.0364 (LSRALNLLGLETDLS) | 167 SFC/10^6 | 167 SFC/10^6 |  | 
3324.0522 (IIFSKNLNIKLNMPL) | 863 SFC/10^6 | 863 SFC/10^6 |  | 
3324.0525 (DKSMKVTVAFNQFGP) | 323 SFC/10^6 | 323 SFC/10^6 |  | 
3324.0529 (MAAVAFLALQLIVMA) | 283 SFC/10^6 | 283 SFC/10^6 |  | 
3324.0605 (HFFNHHKVMLLGHDD) | 992 SFC/10^6 | 992 SFC/10^6 |  | 
3324.0612 (TISNNHFFNHHKVML) | 542 SFC/10^6 | 542 SFC/10^6 |  | 
3324.0619 (GPCLFMRKVSHVILH) | 687 SFC/10^6 | 687 SFC/10^6 |  | 
3324.0621 (MRKVSHVILHGLHIH) | 642 SFC/10^6 | 642 SFC/10^6 |  | 
3324.0622 (DKSMKVTVAFNQFGP) | 102 SFC/10^6 | 102 SFC/10^6 |  | 
3324.0827 (DNGYGYFAANIDLMM) | 53 SFC/10^6 | 53 SFC/10^6 |  | 
3324.0835 (QTHSAIAVIIGIKDL) | 317 SFC/10^6 | 317 SFC/10^6 |  | 
3324.0838 (LESVKYVQSNGGAIN) | 467 SFC/10^6 | 467 SFC/10^6 |  | 
3324.0839 (ARKNFLESVKYVQSN) | 487 SFC/10^6 | 487 SFC/10^6 |  | 
3324.0940 (QQYDIKYTWNVPKIA) | 1333 SFC/10^6 | 1333 SFC/10^6 |  | 
3324.0960 (SELRRVDIAVVSRKE) | 120 SFC/10^6 | 120 SFC/10^6 |  | 
3324.0964 (GGEKISVAKIFAHEK) | 137 SFC/10^6 | 137 SFC/10^6 |  | 
3324.0966 (EYWILTAAHCVAGQT) | 203 SFC/10^6 | 203 SFC/10^6 |  | 
3324.0967 (IDNDIALIKLKSPMK) | 187 SFC/10^6 | 187 SFC/10^6 |  | 
3324.0968 (IRYNSLKHSLGGEKI) | 137 SFC/10^6 | 137 SFC/10^6 |  | 

Substance | Response (SFC/10^6) IL-5 ([1]; one donor per table line) | Response (SFC/10^6) Total ([2]; one donor per table line) | Response (SFC/10^6) IL-5 ([1]; each table line is one donor) | Response (SFC/10^6) Total ([2]; each table line is one donor)
3324.0969 (TLANPILPASPNATI) | 167 SFC/10^6 | 167 SFC/10^6 |  | 
3324.0970 (EFDAFVAYHIGARIV) | 123 SFC/10^6 and 763 SFC/10^6 | 123 SFC/10^6 and 763 SFC/10^6 |  | 
3324.0972 (LKAATAFMLAWNYGV) | 757 SFC/10^6 | 757 SFC/10^6 |  | 
3324.0973 (FEGRLLKAATAFMLA) | 113 SFC/10^6 and 953 SFC/10^6 | 113 SFC/10^6 and 953 SFC/10^6 |  | 
3324.0979 (PDDLRSIYSRLHNLN) | 177 SFC/10^6 | 177 SFC/10^6 |  | 
3324.0988 (RIYVDIVLNHMTGAQ) | 117 SFC/10^6 | 117 SFC/10^6 |  | 
3324.0989 (SIYSRLHNLNKEFFP) | 117 SFC/10^6 | 117 SFC/10^6 |  | 
3324.0991 (PRVMSSYFWNQIIKD) | 152 SFC/10^6 | 152 SFC/10^6 |  | 
3324.0992 (DALVMIDSHDLRVGH) | 290 SFC/10^6 | 290 SFC/10^6 |  | 
3324.0993 (VKFRMIAGQEPVHNW) | 92 SFC/10^6 | 92 SFC/10^6 |  | 
3324.0997 (GELALFYLQEQINHF) | 1113 SFC/10^6 | 1113 SFC/10^6 |  | 
3324.0998 (FDFLLMERIHEQIKK) | 143 SFC/10^6 | 143 SFC/10^6 |  | 
3324.1001 (RKDLDIFEQYNLEMA) | 117 SFC/10^6 | 117 SFC/10^6 |  | 
3324.1036 (TLPTILQIASVTKMS) | 120 SFC/10^6 | 120 SFC/10^6 |  | 
3324.1040 (TIYSNVANLRNWIIS) | 297 SFC/10^6 | 297 SFC/10^6 |  | 
3324.1043 (SNVANLRNWIISNTV) | 177 SFC/10^6 | 177 SFC/10^6 |  | 
3324.1102 (DTCRARFITKLSEFI) | 67 SFC/10^6 | 67 SFC/10^6 |  | 
3324.1105 (LSEFITGASVRLQCR) | 73 SFC/10^6 | 73 SFC/10^6 |  | 
3324.1129 (ELADILRSLGSDVGE) | 380 SFC/10^6 | 380 SFC/10^6 |  | 
3324.1130 (LISVEEFQTMMTSEM) | 153 SFC/10^6 | 153 SFC/10^6 |  | 
3324.1131 (GYVSLQEFVDLNNKG) | 80 SFC/10^6 and 420 SFC/10^6 | 80 SFC/10^6 and 420 SFC/10^6 |  | 
3324.1134 (VALFAVFLGSAHGIA) | 208 SFC/10^6 | 208 SFC/10^6 |  | 
3324.1137 (KQQGIRYANPIAFFR) | 123 SFC/10^6 | 123 SFC/10^6 |  | 
3324.1170 (FLAVALVAGPAASYA) |  |  | 63 SFC/10^6 | 63 SFC/10^6
3324.1178 (EVKYTVSETALKKAV) |  |  | 333 SFC/10^6 | 333 SFC/10^6
3324.1179 (FTVFENTFNNAIKVS) |  |  | 87 SFC/10^6 | 87 SFC/10^6

Substance | Response (SFC/10^6) IL-5 ([1]; one donor per table line) | Response (SFC/10^6) Total ([2]; one donor per table line) | Response (SFC/10^6) IL-5 ([1]; each table line is one donor) | Response (SFC/10^6) Total ([2]; each table line is one donor)
3324.1181 (VDAAYRTAATAANAA) |  |  | 383 SFC/10^6 | 383 SFC/10^6
3324.1183 (LKKAVTAMSEAEKEA) |  |  | 128 SFC/10^6 | 128 SFC/10^6
3324.1186 (TNKAFVEGLASGYAD) |  |  | 287 SFC/10^6 | 287 SFC/10^6
3324.1191 (DKFTVFESAFNKALN) |  |  | 97 SFC/10^6 | 97 SFC/10^6
3324.1196 (AALTKAITAMTQAQK) |  |  | 998 SFC/10^6 | 998 SFC/10^6
3324.1547 (KYMVIQGEPGAVIRG) | 63 SFC/10^6 | 63 SFC/10^6 |  | 
3324.1549 (SSSFPQFKSEEITNI) | 77 SFC/10^6 | 77 SFC/10^6 |  | 
3324.1550 (GVTVKKTNQALIFGI) | 93 SFC/10^6 | 93 SFC/10^6 |  | 
3324.1552 (HSRNLINELSERMAG) |  |  | 118 SFC/10^6 and 190 SFC/10^6 and 57 SFC/10^6 | 118 SFC/10^6 and 190 SFC/10^6 and 57 SFC/10^6
3324.1558 (NYLALLVKYVTGDGD) |  |  | 80 SFC/10^6 | 80 SFC/10^6
3324.1562 (DKFTVFEAAFNNAIK) |  |  | 183 SFC/10^6 | 183 SFC/10^6
3324.1591 (FIFGEARSLYLNTEL) |  |  | 500 SFC/10^6 and 133 SFC/10^6 | 500 SFC/10^6 and 133 SFC/10^6
3324.1593 (FEAARVVFSYCNLSD) |  |  | 363 SFC/10^6 | 363 SFC/10^6
3324.1594 (SDYFVGANLIVSNSA) |  |  | 920 SFC/10^6 | 920 SFC/10^6
3324.1596 (AAEFGTVDSATLIVE) |  |  | 3003 SFC/10^6 | 3003 SFC/10^6
3324.1599 (EKVKIERLHPYITLY) |  |  | 260 SFC/10^6 | 260 SFC/10^6
3324.1600 (EYIEAAKWLLPPPKV) |  |  | 980 SFC/10^6 | 980 SFC/10^6
3324.1601 (GANLIVSNSAPRPDG) |  |  | 147 SFC/10^6 | 147 SFC/10^6
3324.1602 (RTIFFDAYLGTSYVI) |  |  | 433 SFC/10^6 | 433 SFC/10^6
3324.1603 (DAYLGTSYVIVIKEP) |  |  | 290 SFC/10^6 | 290 SFC/10^6
3324.1606 (KIAAEIAIALLFLRD) |  |  | 90 SFC/10^6 | 90 SFC/10^6
3324.1608 (IAIALLFLRDAKPEP) |  |  | 97 SFC/10^6 | 97 SFC/10^6
3324.1609 (SFGIILLQLLTARPP) |  |  | 103 SFC/10^6 | 103 SFC/10^6
3324.1630 (TKLDDEIKSWLAFAA) |  |  | 87 SFC/10^6 | 87 SFC/10^6
3324.1632 (VIAELKAAGASTIQF) |  |  | 313 SFC/10^6 | 313 SFC/10^6
